The supplement of paper PMC5579334
± gives the standard deviation of the averaged measurements.

Key:
HS-PSS [1] = assay: drug sensitivity score (DSS, CellTiter-Glo viability, 72 h) (DSS (dimensionless)); higher = more sensitive; extreme values may be limits of the assay
Method in brief: (§1)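 For this screen, 384-well plates were preprinted with each compound at five concentrations in 10-fold steps and seeded with MPNST cell lines or primary human Schwann cells at 750–1000 cells per well. Incubation lasted 72 h at 37 °C, 5% CO2, and CellTiter-Glo ATP luminescence, scaled between vehicle and positive-control wells and averaged over duplicates where available, served as viability. Logistic fits with four parameters were applied. Relative IC50 (censored at the top concentration) and drug sensitivity score derive from these fits, and percent inhibition is at the top concentration.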

HS-Sch-2 [2] = assay: as above
Method in brief: as §1

[3] = system: HSC1 (primary human Schwann cells); assay: as above
Method in brief: as §1

[4] = system: HSC2 (primary human Schwann cells); assay: as above
Method in brief: as §1

S1507-2 [5] = assay: as above
Method in brief: as §1

S462 [6] = assay: as above
Method in brief: as §1

ST8814 [7] = assay: as above
Method in brief: as §1

STS26T [8] = assay: as above
Method in brief: as §1

YST-1 [9] = assay: as above
Method in brief: as §1

HS-PSS [10] = assay: drug sensitivity score (DSS, CellTox-Green cytotoxicity, 72 h) (DSS (dimensionless)); higher = more cytotoxic; extreme values may be limits of the assay
Method in brief: (§2)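 MPNST cell lines and primary human Schwann cells were grown for 72 h at 37 °C in 384-well plates containing five 10-fold compound dilutions. CellTox-Green, added before seeding at a final 1:1000 dilution, gave fluorescence from DNA released by disrupted cells, and signals were scaled to vehicle and positive-control wells. Curves were fitted with a four-parameter logistic model. Drug sensitivity score and relative IC50 come from these fits, with IC50 censored at the top concentration.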

[11] = system: HSC1 (primary human Schwann cells); assay: as above
Method in brief: as §2

[12] = system: HSC2 (primary human Schwann cells); assay: as above
Method in brief: as §2

S1507-2 [13] = assay: as above
Method in brief: as §2

ST8814 [14] = assay: as above
Method in brief: as §2

STS26T [15] = assay: as above
Method in brief: as §2

HS-PSS [16] = assay: % inhibition of CellTiter-Glo viability at highest tested concentration (72 h), relative to DMSO and benzethonium chloride controls; higher = more inhibition
Method in brief: as §1

HS-Sch-2 [17] = assay: as above
Method in brief: as §1

[18] = system: HSC1 (primary human Schwann cells); assay: as above
Method in brief: as §1

[19] = system: HSC2 (primary human Schwann cells); assay: as above
Method in brief: as §1

S1507-2 [20] = assay: as above
Method in brief: as §1

S462 [21] = assay: as above
Method in brief: as §1

ST8814 [22] = assay: as above
Method in brief: as §1

STS26T [23] = assay: as above
Method in brief: as §1

YST-1 [24] = assay: as above
Method in brief: as §1

| SMILES | drug sensitivity score (HS-PSS [1]) | drug sensitivity score (HS-Sch-2 [2]) | drug sensitivity score [3] | drug sensitivity score [4] | drug sensitivity score (S1507-2 [5]) | drug sensitivity score (S462 [6]) | drug sensitivity score (ST8814 [7]) | drug sensitivity score (STS26T [8]) | drug sensitivity score (YST-1 [9]) | drug sensitivity score (HS-PSS [10]) | drug sensitivity score [11] | drug sensitivity score [12] | drug sensitivity score (S1507-2 [13]) | drug sensitivity score (ST8814 [14]) | drug sensitivity score (STS26T [15]) | % inhibition (HS-PSS [16]) [%] | % inhibition (HS-Sch-2 [17]) [%] | % inhibition [18] [%] | % inhibition [19] [%] | % inhibition (S1507-2 [20]) [%] | % inhibition (S462 [21]) [%] | % inhibition (ST8814 [22]) [%] | % inhibition (STS26T [23]) [%] | % inhibition (YST-1 [24]) [%] |
| --- | --- | --- | --- | --- | --- | --- | --- | --- | --- | --- | --- | --- | --- | --- | --- | --- | --- | --- | --- | --- | --- | --- | --- | --- |
| COc1cccc2cc(-c3nc([C@H]4CC[C@H](C(=O)O)CC4)n4ncnc(N)c34)[nH]c12 [OSI-027] (max concentration tested 10000 nM) | 0.84 | 2.33 | 10.7 | 8.56 | 8.32 ± 1 | 7.41 ± 0.52 | 5.6 | 4.45 | 9.46 | 0 | 0 | 0 | 2.04 ± 1.4 | 0 | 0 | 26.6 | 49.1 | 84.8 | 80.9 | 64.4 ± 4.5 | 58.2 ± 2.5 | 53 | 53.1 | 78 |
| C[C@]12CC[C@H](O)CC1=CC[C@@H]1[C@@H]2CC[C@]2(C)C(c3cccnc3)=CC[C@@H]12 [Abiraterone] (max concentration tested 5000 nM) | 0 | 0 | 0.394 | 1.01 | 1.83 ± 2 | 0.775 ± 0.16 | 0 | 0 | 0 | 0 | 0 | 0 | 0.133 ± 0.19 | 0 | 0 | -3.84 | 3.26 | 12.6 | 18.7 | 17.1 ± 2.1 | 7.79 ± 0.37 | 4.42 | 3.38 | 5.69 |
| Nc1ccccc1NC(=O)c1ccc(CNC(=O)OCc2cccnc2)cc1 [Entinostat] (max concentration tested 10000 nM) | 2.31 | 4.13 | 5.09 | 4.87 | 4.79 ± 0.3 | 9.84 ± 0.75 | 4.2 | 4.35 | 10.3 | 0.63 | 0 | 0 | 2.98 ± 1.3 | 2.69 | 0.625 | 52 | 79.7 | 71.2 | 73 | 74.9 ± 7.7 | 105.3 ± 0.38 | 87.7 | 69.3 | 97.7 |
| O=P1(NCCCl)OCCCN1CCCl (centres undefined) [Ifosfamide] (max concentration tested 10000 nM) | 0 | 0 | 0 | 0 | 0.228 ± 0.32 | 0 | 0 | 0 | 0.08 | 0 | 0 | 0 | 0 | 0 | 0 | -0.44 | -4.64 | 0.661 | -1.49 | 4.66 ± 16 | 2.94 ± 0.79 | 1.12 | -1.13 | 11.6 |
| CC(C)(C)c1cc(NC(=O)Nc2ccc(-c3cn4c(n3)sc3cc(OCCN5CCOCC5)ccc34)cc2)no1 [Quizartinib] (max concentration tested 1000 nM) | 0 | 0.1 | 3.73 | 1.32 | 1.94 ± 0.75 | 4.8 ± 1.2 | 2.56 | 1.24 | 7.45 | 0 | 0 | 0 | 0 | 0 | 0 | -10.7 | 14.4 | 47.8 | 36.6 | 21.3 ± 1.4 | 64.2 ± 37 | 15.8 | 15.3 | 78.7 |
| O=C1NC(=O)[C@@H](c2cn3c4c(cccc24)CCC3)[C@@H]1c1c[nH]c2ccccc12 [Tivantinib] (max concentration tested 1000 nM) | 2.27 | 6 | 3.89 | 4.03 | 5.33 ± 1.5 | 5.15 ± 0.31 | 5 | 6.92 | 6.48 | 0.01 | 1.43 | 2.53 | 4.49 ± 1.2 | 4.59 | 7.73 | 36.1 | 82.9 | 62.9 | 60.3 | 80 ± 5.9 | 98.43 ± 0.21 | 93 | 98.2 | 78.2 |
